# Test results from patent publication US8440617B2, “Hyperbaric treatment in wound healing” (The Trustees of the University of Pennsylvania, priority 2007, dated 2013).
# “Also recorded” adds a separate entry of the source.
# Tested on: circulating EPCs (CXCR4+/VEGFR2+, Tie2+/VEGFR2+)
# Test: Circulating EPCs by flow cytometry in STZ-diabetic mice
# Format: in vivo, mouse
# Conditions: diabetic mice treated with insulin
# Description: Tie2-GFP, wild-type or chimeric FVB mice at 6-12 wk of age were treated with STZ (Sigma-Aldrich) to induce diabetes. Mice were rendered diabetic by i.p. administration of 60 mg/kg STZ in 50 mM sodium citrate, pH 4.5, daily for 5 d. Control mice were treated with daily injections of citrate buffer. Serum glucose was measured from the mouse tail vein using a glucometer. Once serum glucose reached 250 mg/dL, mice were followed with daily measurements for 1 wk prior to use in experiments. Serum glucose levels in STZ mice averaged 461 mg/dL with a range of 372-520 mg/dL, while control mice serum glucose mean level was 120 mg/dL with a range of 94-135 mg/dL. Wounds were induced on the ventral surface of the mouse thigh using a 4 mm punch biopsy. Full-thickness skin was removed, exposing the underlying muscle.
# For HBO treatment, mice were placed in an animal hyperbaric chamber (Reneau Corp.) and subjected to 100% oxygen at 2.4 atmospheres absolute (ATA) for 90 min (Davis Wound Healing Protocol). To measure continuous, real-time BM NO levels, NO microelectrodes was inserted into the femoral marrow cavity as previously described. An osteotomy was created on the patellar surface of the murine femur using a 25 G beveled needle, allowing the electrode to be lowered into the marrow space when the animal was placed in the hyperbaric chamber. In some mice, pretreatment with L-NAME (40 mg/kg i.p.) (Sigma-Aldrich) was given 2 h prior to exposure to HBO.
# Mobilization of EPCs into circulation was studied using flow cytometry as previously described. Cells isolated from mice were incubated with various Abs (BD Biosciences). Isotype matched mouse immunoglobulins served as controls. One million viable cells were analyzed per sample using an LSR2 multicolor flow cytometer (BD Biosciences). Data was analyzed using FlowJo software (Treestar, Inc.).
# Physiologically, increased levels of BM NO result in activation of MMP-9 and conversion of kit ligand to its soluble form, ultimately generating EPC release into circulation. To study the effects of the hyperoxia-induced rise in NO levels in the marrow cavity on mobilization of EPCs into circulation, peripheral blood from diabetic mice was analyzed for EPCs using flow cytometry. A determination of whether hyperoxia, induced by HBO, increases the number of circulating EPCs in the peripheral blood of diabetic mice was made. Specifically, peripheral blood of diabetic mice was examined 18 h after a single HBO treatment. After excluding dead DAPI^+labeled cells, candidate lymphocytes, identified by their typical appearance on forward and side scatter, were gated and CD45^+/CD3^+cell populations were excluded. […] Therefore, several marker combinations were used to quantitate circulating EPCs. […]
substance,measurement,value
"insulin: human insulin (NPH), 6 U/kg twice/d i.p.",EPC mobilization,little effect; also recorded: does not increase
